Measured values from patent US6800648B2, “Antipsychotic aminomethyl derivatives of 7,8-dihydro-3H-1,6,9-trioxa-3-AZA-cyclopenta[a]naphthalen-2-one” (Wyeth, priority 2001, dated 2004).
Counter-ions that a name gives are not always drawn.

Experiments:
dopamine D2 receptor = molecular target: T1, dopamine D2 receptor (Rattus norvegicus, UniProt P61169); assay: Dopamine D2 receptor affinity, 3H-quinpirole binding in homogenized rat striatal brain tissue
T1 construct: from tissue; host or cells: rat striatal brain tissue homogenate
Procedure: Affinity for the dopamine D2 receptor was established by a modification of the standard experimental test procedure of Seemen and Schaus, European Journal of Pharmacology 203: 105-109, 1991, wherein homogenized rat striatal brain tissue is incubated with ^3H-quinpirole and various concentrations of test compound, filtered and washed and counted in a Betaplate scintillation counter.

mouse locomotor activity = assay: Reduction of mouse locomotor activity (functional antagonism of dopamine receptors in vivo); settings: mice (male, CF-1), sc, horizontal activity counts 10 to 20 minutes after dosing
Procedure: The antipsychotic activity of the compounds of the invention was established by a determination of functional antagonism of dopamine receptors in vivo, specifically the compounds' ability to reduce mouse locomotor activity according to the method of Martin and Bendensky, J. Pharmacol. Exp. Therap. 229: 706-711, 1984, in which mice (male, CF-1, Charles River, 20-30 g) were injected with vehicle or various doses of each drug and locomotor activity was measured for 30 minutes using automated infrared activity monitors (Omnitech—8×8 inch open field) located in a darkened room. ED50's were calculated from the horizontal activity counts collected from 10 to 20 minutes after dosing using a nonlinear regression analysis with inverse prediction.

T1 sequence (P61169 whole entry): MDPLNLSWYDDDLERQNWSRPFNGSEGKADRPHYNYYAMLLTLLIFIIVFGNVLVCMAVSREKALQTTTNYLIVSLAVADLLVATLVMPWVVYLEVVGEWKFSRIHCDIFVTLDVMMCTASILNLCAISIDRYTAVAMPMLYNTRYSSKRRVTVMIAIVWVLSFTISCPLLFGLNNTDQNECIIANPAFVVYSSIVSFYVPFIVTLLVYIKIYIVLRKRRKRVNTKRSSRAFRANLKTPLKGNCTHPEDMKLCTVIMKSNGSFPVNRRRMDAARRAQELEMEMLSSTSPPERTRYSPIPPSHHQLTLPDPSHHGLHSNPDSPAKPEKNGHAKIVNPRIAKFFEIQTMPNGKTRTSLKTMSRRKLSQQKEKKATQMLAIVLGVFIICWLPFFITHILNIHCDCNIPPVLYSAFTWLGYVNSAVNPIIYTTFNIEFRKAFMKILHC

IC50 (dopamine D2 receptor) | melting point | Structure (SMILES) | ED50 (mouse locomotor activity)
2 nM |  | O=c1[nH]c2ccc3c(c2o1)OC(CNCCCCc1ccccc1)CO3 (stereo not shown) [Example 4, 8-[(4-Phenyl-butylamino)-methyl]-7,8-dihydro-3H-1,6,9-trioxa-3-aza-cyclopenta[a]naphthalen-2-one] | 
3.7 nM |  | NCC1COc2ccc3[nH]c(=O)oc3c2O1 (stereo not shown) [Example 1, 8-Aminomethyl-7,8-dihydro-3H-1,6,9-trioxa-3-aza-cyclopenta[a]naphthalen-2-one] | 
 | > 250 °C | NCC1COc2ccc3[nH]c(=O)oc3c2O1 (stereo not shown) (as salt: HCl) [Example 1, 8-Aminomethyl-7,8-dihydro-3H-1,6,9-trioxa-3-aza-cyclopenta[a]naphthalen-2-one] | 
0.16 nM |  | O=c1[nH]c2ccc3c(c2o1)OC(CNCc1ccccc1)CO3 (stereo not shown) [Example 2, 8-(Benzylamino-methyl)-7,8-dihydro-3H-1,6,9-trioxa-3-aza-cyclopenta[a]naphthalen-2-one] | 
 | 220 °C | O=c1[nH]c2ccc3c(c2o1)OC(CNCc1ccccc1)CO3 (stereo not shown) (as salt: fumarate) (hydrate or solvate) [Example 2, 8-(Benzylamino-methyl)-7,8-dihydro-3H-1,6,9-trioxa-3-aza-cyclopenta[a]naphthalen-2-one] | 
 | 202 °C | O=c1[nH]c2ccc3c(c2o1)OC(CN1CC=C(c2c[nH]c4ccccc24)CC1)CO3 (stereo not shown) | 
 | 215 to 218 °C | O=c1[nH]c2ccc3c(c2o1)OC(CNCCCCc1ccccc1)CO3 (stereo not shown) (as salt: fumarate) (hydrate or solvate) [Example 4, 8-[(4-Phenyl-butylamino)-methyl]-7,8-dihydro-3H-1,6,9-trioxa-3-aza-cyclopenta[a]naphthalen-2-one] | 
475 nM | 210 °C | O=c1[nH]c2ccc3c(c2o1)OC(CN(Cc1ccccc1)Cc1ccccc1)CO3 (stereo not shown) [Example 3, 8-[(Dibenzylamino)-methyl]-7,8-dihydro-3H-1,6,9-trioxa-3-aza-cyclopenta[a]naphthalen-2-one] | ≥ 50 mg/kg
